Reference: patent US7989447B2, “1,5 and 3,6-substituted indole compounds having NOS inhibitory activity” (NeurAxon, Inc., priority 2006, dated 2011)
Like-named read-outs stand apart in the source and are kept apart here.

Assays:
[1] = target: human inducible NOS (iNOS) (Homo sapiens, UniProt P35228); experiment: iNOS (Human) enzyme assay, radiometric conversion of [3H]L-arginine to [3H]L-citrulline; assay type: biochemical; details: recombinant human enzyme, 37° C., 45 min
Procedure: (§1) Recombinant human inducible NOS (iNOS), human endothelial constitutive NOS (eNOS) or human neuronal constitutive NOS(nNOS) were produced in Baculovirus-infected Sf9 cells (ALEXIS). In a radiometric method, NO synthase activity was determined by measuring the conversion of [^3H]L-arginine to [^3H]L-citrulline. To measure iNOS, 10 μL of enzyme was added to 100 μL of 100 mM HEPES, pH=7,4, containing 1 mM CaCl2, 1 mM EDTA, 1 mM dithiotheitol, 1 μM FMN, 1 μM FAD, 10 μM tetrahydrobiopterin, 120 μM NADPH, and 100 nM CaM. To measure eNOS or nNOS, 10 μL of enzyme was added to 100 μL of 40 mM HEPES, pH=7.4, containing 2.4 mM CaCl2, 1 mM MgCl2, 1 mg/mL BSA, 1 mM EDTA, 1 mM dithiothreitol, 1 μM FMN, 1 μM FAD, 10 μM tetrahydrobiopterin, 1 mM NADPH, and 1.2 μM CaM.
(§2) To measure enzyme inhibition, a 15 μL solution of a test substance was added to the enzyme assay solution, followed by a pre-incubation time of 15 min at RT. The reaction was initiated by addition of 20 μL L-arginine containing 0.25 μCi of [^3H]arginine/mL and 24 μM L-arginine. The total volume of the reaction mixture was 150 μL in every well. The reactions were carried out at 37° C. for 45 min. The reaction was stopped by adding 20 μL of ice-cold buffer containing 100 mM HEPES, 3 mM EGTA, 3 mM EDTA, pH=5.5. [^3H]L-citrulline was separated by DOWEX (ion-exchange resin DOWEX 50 W X 8-400, SIGMA) and the DOWEX was removed by spinning at 12,000 g for 10 min in the centrifuge. An 70 μL aliquot of the supernatant was added to 100 μL of scintillation fluid and the samples were counted in a liquid scintillation counter (1450 Microbeta Jet, Wallac). […] All assays were performed at least in duplicate.

[2] = target: human endothelial constitutive NOS (eNOS) (Homo sapiens, UniProt P29474); experiment: eNOS (Human) enzyme assay, radiometric conversion of [3H]L-arginine to [3H]L-citrulline; assay type: biochemical; details: recombinant human enzyme, 37° C., 45 min
Procedure: as §1, §2

[3] = target: human neuronal constitutive NOS (nNOS) (Homo sapiens, UniProt P29475); experiment: nNOS (Human) enzyme assay, radiometric conversion of [3H]L-arginine to [3H]L-citrulline; assay type: biochemical; details: for Ratio e/n: human eNOS / human nNOS
Chain of human neuronal constitutive NOS (nNOS) (P29475 whole entry): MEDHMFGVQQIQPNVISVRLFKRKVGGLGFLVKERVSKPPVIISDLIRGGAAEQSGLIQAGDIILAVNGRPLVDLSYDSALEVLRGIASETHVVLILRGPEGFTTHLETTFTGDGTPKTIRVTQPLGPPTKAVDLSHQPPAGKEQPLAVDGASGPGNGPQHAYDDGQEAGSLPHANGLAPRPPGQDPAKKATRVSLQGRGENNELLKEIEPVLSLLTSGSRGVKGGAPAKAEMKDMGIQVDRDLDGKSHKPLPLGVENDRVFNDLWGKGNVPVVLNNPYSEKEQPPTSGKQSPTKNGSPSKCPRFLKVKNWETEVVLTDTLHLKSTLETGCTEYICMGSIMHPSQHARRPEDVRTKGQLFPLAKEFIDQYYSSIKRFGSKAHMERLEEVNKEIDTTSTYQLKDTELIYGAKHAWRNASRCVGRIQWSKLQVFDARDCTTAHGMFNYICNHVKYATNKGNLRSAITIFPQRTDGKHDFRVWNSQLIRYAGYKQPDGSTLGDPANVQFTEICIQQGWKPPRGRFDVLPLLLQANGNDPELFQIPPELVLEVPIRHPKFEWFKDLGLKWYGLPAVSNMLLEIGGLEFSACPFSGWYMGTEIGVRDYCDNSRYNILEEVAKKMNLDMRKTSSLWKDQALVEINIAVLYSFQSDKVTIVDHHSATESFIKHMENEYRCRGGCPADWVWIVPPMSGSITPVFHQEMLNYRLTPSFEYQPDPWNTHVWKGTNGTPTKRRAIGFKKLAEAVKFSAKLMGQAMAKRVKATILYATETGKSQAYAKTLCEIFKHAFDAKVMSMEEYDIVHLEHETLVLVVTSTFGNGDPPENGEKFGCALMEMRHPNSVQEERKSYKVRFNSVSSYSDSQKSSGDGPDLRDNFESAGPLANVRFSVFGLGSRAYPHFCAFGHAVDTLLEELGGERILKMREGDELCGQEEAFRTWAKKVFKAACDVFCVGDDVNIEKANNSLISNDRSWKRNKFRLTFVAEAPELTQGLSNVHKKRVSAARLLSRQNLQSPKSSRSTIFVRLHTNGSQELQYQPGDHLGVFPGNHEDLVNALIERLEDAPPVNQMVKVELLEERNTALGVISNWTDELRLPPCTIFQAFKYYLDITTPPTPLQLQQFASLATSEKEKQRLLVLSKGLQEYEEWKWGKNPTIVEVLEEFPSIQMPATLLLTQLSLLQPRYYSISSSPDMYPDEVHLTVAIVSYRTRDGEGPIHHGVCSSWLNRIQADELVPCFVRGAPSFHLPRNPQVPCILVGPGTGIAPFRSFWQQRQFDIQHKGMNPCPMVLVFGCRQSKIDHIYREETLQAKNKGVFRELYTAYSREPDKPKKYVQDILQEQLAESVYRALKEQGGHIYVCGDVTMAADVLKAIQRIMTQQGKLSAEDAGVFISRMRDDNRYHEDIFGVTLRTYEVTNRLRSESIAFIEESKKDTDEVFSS

[4] = system: migraine patients; details: open pilot study; cited from earlier work
[5] = recombinant human enzyme, 37° C., 45 min, read-out: Human nNOS

SMILES	IC50 ([2]; read-out: Human eNOS)	Ratio e/n [3]	IC50 [3, 5]	Human iNOS (μM) [1]	IC50 [1]	IC50 ([2]; Human eNOS (μM))	IC50 [3]	patients with a 50% reduction in the frequency of migraine attack [4]
CN1CCCC(n2ccc3cc(NC(=N)c4ccco4)ccc32)CC1 (single isomer, unassigned) [(+)−55]	24.5 µM	–	–	–	10 µM	–	–	–
CN1CCCC1CCn1ccc2cc(NC(=N)c3cccs3)ccc21 (single isomer, unassigned) [(+)−57]	3.37 µM	–	–	–	22 µM	–	–	–
CN1CCCC(n2ccc3cc(NC(=N)c4ccco4)ccc32)CC1 (single isomer, unassigned) [(−)−55]	28.5 µM	–	–	–	46 µM	–	–	–
CN1CCCC1CCn1ccc2cc(NC(=N)c3cccs3)ccc21 (single isomer, unassigned) [(−)−57]	1.92 µM	–	–	–	1.7 µM	–	–	–
CCN(CC)CCn1c(Cc2ccc(OC(F)(F)F)cc2)cc2cc(NC(=N)c3cccs3)ccc21 [Compound 11, N-(1-(2-(Diethylamino)ethyl)-2-(4-(trifluoromethoxy)benzyl)-1H-indol-5-yl)thiophene-2-carboximidamide]	–	5.62	0.8 µM	–	17 µM	4.5 µM	–	–
CN1CCCC(n2ccc3cc(NC(=N)c4ccco4)ccc32)CC1 (stereo not shown) [Compound 54, N-(1-(1-methylazepan-4-yl)-1H-indol-5-yl)furan-2-carboximidamide]	38.5 µM	–	–	–	49 µM	–	–	–
CN1CCCC(n2ccc3cc(NC(=N)c4cccs4)ccc32)CC1 (stereo not shown) [Compound 58, N-(1-(1-methylazepan-4-yl)-1H-indol-5-yl)thiophene-2-carboximidamide]	11.5 µM	93.49	0.12 µM	–	7.6 µM	–	–	–
N=C(Nc1ccc2c(ccn2C2CN3CCC2CC3)c1)c1cccs1 (stereo not shown) [Compound 71, N-(1-(Quinuclidin-3-yl)-1H-indol-5-yl)thiophene-2-carboximidamide]	12.1 µM	32.79	0.36 µM	–	29 µM	–	–	–
CN1C2CCC1CC(n1ccc3cc(NC(=N)c4cccs4)ccc31)C2 (stereo not shown) [Compound 86, N-(1-(8-methyl-8-azabicyclo[3.2.1]octan-3-yl)-1H-indol-5-yl)thiophene-2-carboximidamide]	18.9 µM	24.70	0.76 µM	–	11 µM	–	–	–
CN1CCC(c2c[nH]c3cc(NC(=N)c4cccs4)ccc23)CC1 [Compound 108, N-[3-(1-methyl-piperidin-4-yl)-1H-indol-6-yl]-thiophene-2-carboxamidine]	17 µM	23.94	0.71 µM	–	9.3 µM	–	–	–
N=C(Nc1ccc2c(C3CN4CCC3CC4)c[nH]c2c1)c1cccs1 (stereo not shown) [Compound 112, N-(3-(quinuclidin-3-yl)-1H-indol-6-yl)thiophene-2-carboximidamide]	31.4 µM	27.78	–	–	0.4 µM	–	1.13 µM	–
CCNC1CCC(c2c[nH]c3cc(NC(=N)c4cccs4)ccc23)CC1 (stereo not shown) [Compound 129]	14.9 µM	57.08	0.26 µM	–	4.2 µM	–	–	–
CCNC1CC=C(c2c[nH]c3cc(NC(=N)c4cccs4)ccc23)CC1 (stereo not shown) [Compound 132, N-(3-(4-(Ethylamino)cyclohex-1-enyl)-1H-indol-6-yl)thiophene-2-carboximidamide]	17.4 µM	23.83	0.73 µM	–	1.93 µM	–	–	–
C/C1=C2/[N-][C@H]([C@H](CC(N)=O)[C@@]2(C)CCC(=O)NC[C@@H](C)OP(=O)([O-])O[C@H]2[C@@H](O)[C@@H](n3cnc4cc(C)c(C)cc43)O[C@@H]2CO)[C@]2(C)N=C(/C(C)=C3N=C(/C=C4N=C1[C@@H](CCC(N)=O)C\4(C)C)[C@@H](CCC(N)=O)[C@]\3(C)CC(N)=O)[C@@H](CCC(N)=O)[C@]2(C)CC(N)=O.[Co+3].[OH-] [hydroxycobalamin]	–	–	–	–	–	–	–	53%

Second part, led by results:

IC50 ([2]; read-out: Human eNOS)	Ratio e/n [3]	IC50 [3, 5]	Human iNOS (μM) [1]	SMILES	IC50 [1]	IC50 ([2]; Human eNOS (μM))	IC50 [3]	patients with a 50% reduction in the frequency of migraine attack [4]
1.52 µM	4.90	0.31 µM	–	CN1CCCC1CCn1c(Cc2ccc(OC(F)(F)F)cc2)cc2cc(NC(=N)c3cccs3)ccc21 (stereo not shown) [Compound 14, N-(1-(2-(1-methylpyrrolidin-2-yl)ethyl)-2-(4-(trifluoromethoxy)benzyl)-1H-indol-5-yl)thiophene-2-carboximidamide]	93 µM	–	–	–
13.2 µM	–	1.28 µM	–	CN1CCCC1CCn1c(-c2ccc([N+](=O)[O-])cc2)cc2cc(NC(=N)c3cccs3)ccc21 (stereo not shown) [Compound 21, N-(1-(2-(1-methylpyrrolidin-2-yl)ethyl)-2-(4-nitrophenyl)-1H-indol-5-yl)thiophene-2-carboximidamide]	52 µM	–	–	–
8.65 µM	6.00	1.44 µM	Not Active	CN1CCCC1CCn1ccc2cc(NC(=N)N[N+](=O)[O-])ccc21 (stereo not shown) [Compound 59, 1-(1-(2-(1-methylpyrrolidin-2-yl)ethyl)-1H-indol-5-yl)-3-nitroguanidine]	–	–	–	–
3.08 µM	5.54	0.55 µM	–	N=C(Nc1ccc2c(ccn2-c2ccc(N)nc2)c1)c1cccs1 [Compound 77, N-(1-(6-aminopyridin-3-yl)-1H-indol-5-yl)thiophene-2-carboximidamide]	–	–	–	–
9.72 µM	9.34	1.04 µM	–	N=C(Nc1ccc2c(ccn2C2CCOCC2)c1)c1cccs1 [Compound 90, N-(1-(tetrahydro-2H-pyran-4-yl)-1H-indol-5-yl)thiophene-2-carboximidamide]	–	–	–	–
3.7 µM	21.3	0.17 µM	–	CN(C)CCn1ccc2cc(NC(=N)c3cccs3)ccc21 [Compound 93, N-(1-(2-(dimethylamino)ethyl)-1H-indol-5-yl)thiophene-2-carboximidamide]	–	–	–	–
9.2 µM	53.80	0.17 µM	–	N=C(Nc1ccc2c(ccn2CCN2CCCCC2)c1)c1cccs1 [Compound 96, N-(1-(2-(piperidin-1-yl)ethyl)-1H-indol-5-yl)thiophene-2-carboximidamide]	–	–	–	–
3.35 µM	30.2	0.11 µM	–	CN1CCC[C@H]1Cn1ccc2cc(NC(=N)c3cccs3)ccc21 [Compound 104, (S)—N-(1-((1-methylpyrrolidin-2-yl)methyl)-1H-indol-5-yl)thiophene-2-carboximidamide]	–	–	–	–
46.2 µM	30.19	1.53 µM	–	N=C(Nc1ccc2c(C3=CN4CCC3CC4)c[nH]c2c1)c1cccs1 [Compound 111, N-(3-(1-azabicyclo[2.2.2]oct-2-en-3-yl)-1H-indol-6-yl)thiophene-2-carboximidamide]	–	–	–	–
7.09 µM	35.45	0.2 µM	–	CN1CCC(c2c[nH]c3cc(NC(=N)c4cccs4)ccc23)C1 (stereo not shown) [Compound 117, N-(3-(1-methylpyrrolidin-3-yl)-1H-indol-6-yl) thiophene-2-carboximidamide]	–	–	–	–
9.47 µM	28.96	0.32 µM	–	CNC1CCC(c2c[nH]c3cc(NC(=N)c4cccs4)ccc23)CC1 (stereo not shown) [Compound 123, N-(3-(4-(methylamino)cyclohexyl)-1H-indol-6-yl)thiophene-2-carboximidamide]	–	–	–	–
21 µM	46.4	0.45 µM	–	CNC1CC=C(c2c[nH]c3cc(NC(=N)c4cccs4)ccc23)CC1 (stereo not shown) [Compound 125, N-(3-(4-(methylamino)cyclohex-1-enyl)-1H-indol-6-yl)thiophene-2-carboximidamide]	–	–	–	–
5.54 µM	27.02	0.2 µM	–	CCCN[C@H]1CC[C@@H](c2c[nH]c3cc(NC(=N)c4cccs4)ccc32)CC1 [Compound 137, N-(3-((1s,4s)-4-(propylamino)cyclohexyl)-1H-indol-6-yl)thiophene-2-carboximidamide]	8.26 µM	–	–	–
11.4 µM	15.83	0.72 µM	–	CCCN[C@H]1CC[C@H](c2c[nH]c3cc(NC(=N)c4cccs4)ccc32)CC1 [Compound 138, N-(3-((1r,4r)-4-(propylamino)cyclohexyl)-1H-indol-6-yl)thiophene-2-carboximidamide]	–	–	–	–
6.99 µM	23.6	0.29 µM	–	CC(C)NC1CCC(c2c[nH]c3cc(NC(=N)c4cccs4)ccc23)CC1 (stereo not shown) [Compound 142]	–	–	–	–
